Values joined by “and” are separate entries in the source; they are usually repeats but may differ in a detail not shown here. Identical values can stand only once. Like-named read-outs stand apart in the source and are kept apart here.
Legend:
Format in all cases: cell-based
[1] = test system: kanamycin resistant S. aureus; test: Checkerboard titration assay for synergy of honeybee venom with antibiotics (OD660 growth curves)
S. aureus = test: Equivalent doses of melittin fraction and whole honeybee venom with and without kanamycin (growth curves); settings: doses of what is present: KANA = 2.5, MEL = 1.6, HBV = 2 (ug/ml)
Staphylococcus aureus = settings: Venom 4 ug/ml; for optical density, AVERAGE: AVERAGE line; for optical density: single replicates
Pseudomonas aeruginosa = settings: Venom 40 ug/ml; for optical density, AVERAGE: AVERAGE line; for optical density: single replicates
[2] = Relative activity of analogues with respect to native melittin
Method: Also some of then analogues mentioned above were tested to determine their relative activities with respect to native melittin. The relative activity is calculated as follows: [formula]

E. coli G1108E = test: Checkerboard titration synergy assay of melittin analogues with polymyxin B; settings: 5 ug/ml peptide with 6 units/ml polymyxin B; delay time until mid-log phase (FIG. 26)
[3] = 0 hours after innoculation, doses of what is present: Rifampicin .001 ug/ml
[4] = 0 hours after innoculation, doses of what is present: Rifampicin .01 ug/ml
[5] = 2 hours after innoculation, doses of what is present: Rifampicin .001 ug/ml
[6] = 2 hours after innoculation, doses of what is present: Rifampicin .01 ug/ml
[7] = 4 hours after innoculation, doses of what is present: Rifampicin .001 ug/ml
[8] = 4 hours after innoculation, doses of what is present: Rifampicin .01 ug/ml
[9] = 6 hours after innoculation, doses of what is present: Rifampicin .001 ug/ml
[10] = 6 hours after innoculation, doses of what is present: Rifampicin .01 ug/ml
[11] = 8 hours after innoculation, doses of what is present: Rifampicin .001 ug/ml
[12] = 8 hours after innoculation, doses of what is present: Rifampicin .01 ug/ml
[13] = 12 hours after innoculation, doses of what is present: Rifampicin .001 ug/ml
[14] = 12 hours after innoculation, doses of what is present: Rifampicin .01 ug/ml
[15] = 0 hours after innoculation, doses of what is present: Rifampicin 10 ug/ml
[16] = 0 hours after innoculation, doses of what is present: Rifampicin 20 ug/ml
[17] = 2 hours after innoculation, doses of what is present: Rifampicin 10 ug/ml
[18] = 2 hours after innoculation, doses of what is present: Rifampicin 20 ug/ml
[19] = 4 hours after innoculation, doses of what is present: Rifampicin 10 ug/ml
[20] = 4 hours after innoculation, doses of what is present: Rifampicin 20 ug/ml
[21] = 6 hours after innoculation, doses of what is present: Rifampicin 10 ug/ml
[22] = 6 hours after innoculation, doses of what is present: Rifampicin 20 ug/ml
[23] = 8 hours after innoculation, doses of what is present: Rifampicin 10 ug/ml
[24] = 8 hours after innoculation, doses of what is present: Rifampicin 20 ug/ml
[25] = 12 hours after innoculation, doses of what is present: Rifampicin 10 ug/ml
[26] = 12 hours after innoculation, doses of what is present: Rifampicin 20 ug/ml

NC[C@H]1O[C@H](O[C@H]2[C@H](O)[C@@H](O[C@H]3O[C@H](CO)[C@@H](O)[C@H](N)[C@H]3O)[C@H](N)C[C@@H]2N)[C@H](O)[C@@H](O)[C@@H]1O [Kanamycin]
MEAN A660 ([1]; KANA = 5, HBV = 0, T0): 0.016
MEAN A660 ([1]; KANA = 5, HBV = 0, T2): 0.047
MEAN A660 ([1]; KANA = 5, HBV = 0, T4): 0.204
MEAN A660 ([1]; KANA = 5, HBV = 0, T6): 0.282
MEAN A660 ([1]; KANA = 5, HBV = 0, T8): 0.351
MEAN A660 ([1]; KANA = 5, HBV = 0, T12): 0.751
MEAN A660 ([1]; KANA = 5, HBV = 0, T24): 1.152
MEAN A660 ([1]; KANA = 10, HBV = 0, T0): 0.016
MEAN A660 ([1]; KANA = 10, HBV = 0, T2): 0.047
MEAN A660 ([1]; KANA = 10, HBV = 0, T4): 0.135
MEAN A660 ([1]; KANA = 10, HBV = 0, T6): 0.172
MEAN A660 ([1]; KANA = 10, HBV = 0, T8): 0.200
MEAN A660 ([1]; KANA = 10, HBV = 0, T12): 0.397
MEAN A660 ([1]; KANA = 10, HBV = 0, T24): 1.164
MEAN A660 ([1]; KANA = 20, HBV = 0, T0): 0.016
MEAN A660 ([1]; KANA = 20, HBV = 0, T2): 0.047
MEAN A660 ([1]; KANA = 20, HBV = 0, T4): 0.123
MEAN A660 ([1]; KANA = 20, HBV = 0, T6): 0.145
MEAN A660 ([1]; KANA = 20, HBV = 0, T8): 0.166
MEAN A660 ([1]; KANA = 20, HBV = 0, T12): 0.220
MEAN A660 ([1]; KANA = 20, HBV = 0, T24): 0.975
MEAN A660 ([1]; KANA = 40, HBV = 0, T0): 0.016
MEAN A660 ([1]; KANA = 40, HBV = 0, T2): 0.047
MEAN A660 ([1]; KANA = 40, HBV = 0, T4): 0.116
MEAN A660 ([1]; KANA = 40, HBV = 0, T6): 0.146
MEAN A660 ([1]; KANA = 40, HBV = 0, T8): 0.161
MEAN A660 ([1]; KANA = 40, HBV = 0, T12): 0.184
MEAN A660 ([1]; KANA = 40, HBV = 0, T24): 0.697
MEAN A660 (S. aureus; T0): 0.021
MEAN A660 (S. aureus; T2): 0.080
MEAN A660 (S. aureus; T4): 0.692
MEAN A660 (S. aureus; T6): 1.114
MEAN A660 (S. aureus; T8): 1.217
MEAN A660 (S. aureus; T12): 1.265
MEAN A660 (S. aureus; T24): 1.330

CO[C@H]1/C=C/O[C@@]2(C)Oc3c(C)c(O)c4c(O)c(c(/C=N/N5CCN(C)CC5)c(O)c4c3C2=O)NC(=O)/C(C)=C\C=C\[C@H](C)[C@H](O)[C@@H](C)[C@@H](O)[C@@H](C)[C@H](OC(C)=O)[C@@H]1C [Rifampicin]
optical density, AVERAGE (Staphylococcus aureus; [3]): .046
optical density (Staphylococcus aureus; [3]): .046
optical density, AVERAGE (Staphylococcus aureus; [4]): .046
optical density (Staphylococcus aureus; [4]): .046
optical density, AVERAGE (Staphylococcus aureus; [5]): .072
optical density (Staphylococcus aureus; [5]): .081 (2×) and .072
optical density, AVERAGE (Staphylococcus aureus; [6]): .056
optical density (Staphylococcus aureus; [6]): .056 and .054 and .058
optical density, AVERAGE (Staphylococcus aureus; [7]): .807
optical density (Staphylococcus aureus; [7]): .855 and .765 and .800
optical density, AVERAGE (Staphylococcus aureus; [8]): .107
optical density (Staphylococcus aureus; [8]): .140 and .068 and .112
optical density, AVERAGE (Staphylococcus aureus; [9]): 1.17
optical density (Staphylococcus aureus; [9]): 1.18 and 1.16 and 1.17
optical density, AVERAGE (Staphylococcus aureus; [10]): .277
optical density (Staphylococcus aureus; [10]): .372 and .156 and .304
optical density, AVERAGE (Staphylococcus aureus; [11]): 1.26
optical density (Staphylococcus aureus; [11]): 1.27 and 1.26 (2×)
optical density, AVERAGE (Staphylococcus aureus; [12]): .898
optical density (Staphylococcus aureus; [12]): 1.07 and .625 and 1.00
optical density, AVERAGE (Staphylococcus aureus; [13]): 1.34
optical density (Staphylococcus aureus; [13]): 1.34
optical density, AVERAGE (Staphylococcus aureus; [14]): 1.32
optical density (Staphylococcus aureus; [14]): 1.32 and 1.34 and 1.30
optical density, AVERAGE (Pseudomonas aeruginosa; [15]): .033
optical density (Pseudomonas aeruginosa; [15]): .033
optical density, AVERAGE (Pseudomonas aeruginosa; [16]): .033
optical density (Pseudomonas aeruginosa; [16]): .033
optical density, AVERAGE (Pseudomonas aeruginosa; [17]): .080
optical density (Pseudomonas aeruginosa; [17]): .074 and .084 and .082
optical density, AVERAGE (Pseudomonas aeruginosa; [18]): .057
optical density (Pseudomonas aeruginosa; [18]): .053 and .056 and .063
optical density, AVERAGE (Pseudomonas aeruginosa; [19]): .647
optical density (Pseudomonas aeruginosa; [19]): .630 and .672 and .640
optical density, AVERAGE (Pseudomonas aeruginosa; [20]): .351
optical density (Pseudomonas aeruginosa; [20]): .375 and .326 and .380
optical density, AVERAGE (Pseudomonas aeruginosa; [21]): .837
optical density (Pseudomonas aeruginosa; [21]): .830 (2×) and .850
optical density, AVERAGE (Pseudomonas aeruginosa; [22]): .688
optical density (Pseudomonas aeruginosa; [22]): .660 and .645 and .700
optical density, AVERAGE (Pseudomonas aeruginosa; [23]): .882
optical density (Pseudomonas aeruginosa; [23]): .885 and .895 and .865
optical density, AVERAGE (Pseudomonas aeruginosa; [24]): .737
optical density (Pseudomonas aeruginosa; [24]): .730 and .720 and .760
optical density, AVERAGE (Pseudomonas aeruginosa; [25]): .841
optical density (Pseudomonas aeruginosa; [25]): .842 and .850 and .832
optical density, AVERAGE (Pseudomonas aeruginosa; [26]): .735
optical density (Pseudomonas aeruginosa; [26]): .730 (2×) and .745

Melittin (1-20) - Arg-Arg-Arg-Arg-Gln-Gln-NH2 [Analogue #5]
Relative Activity [2]: 300%
relative in vitro activity, place in ascending order (E. coli G1108E): 8

Melittin (1-20) - Gly-Gly-Gly-Gly-Gln-Gln-NH2 [Analogue #7]
Relative Activity [2]: 20%
relative in vitro activity, place in ascending order (E. coli G1108E): 1

Melittin (1-20) - Lys-Arg-Lys-Arg-Gly-Gly-NH2 [Analogue #4]
relative in vitro activity, place in ascending order (E. coli G1108E): 7

Melittin (1-20) - NH2 [Analogue #1]
Relative Activity [2]: 20%

NPS-Melittin: o-nitrophenyl sulfenyl group attached to the number 19 tryptophan residue of natural melittin
relative in vitro activity, place in ascending order (E. coli G1108E): 3

Synthetic Melittin: Synthetic melittin purchased from Peninsula Laboratories, Belmont, Calif.
relative in vitro activity, place in ascending order (E. coli G1108E): 5
